# Data: patent publication EP3095787A1, “[…] ACTIVE COMPOUNDS AS DAG-LIPASE INHIBITORS” (Universiteit Leiden, priority 2015, dated 2016)
# “Also recorded” adds a separate entry of the source.
# Legend:
# [1] = target: T1, DAGL-α (Mus musculus, UniProt Q6WQJ1); experiment: Competitive ABPP with MB064 on endogenous DAGL-α in mouse brain membrane proteome; format: biochemical; details: MB064 250 nM, n=3, read-out: pIC50 of DAGL-α labeling by MB064 (converted)
# T1 construct: endogenously expressed DAGL-α in mouse membrane proteome; from tissue; host or cells: mouse brain membrane proteome
# T1 sequence (Q6WQJ1 1-1044): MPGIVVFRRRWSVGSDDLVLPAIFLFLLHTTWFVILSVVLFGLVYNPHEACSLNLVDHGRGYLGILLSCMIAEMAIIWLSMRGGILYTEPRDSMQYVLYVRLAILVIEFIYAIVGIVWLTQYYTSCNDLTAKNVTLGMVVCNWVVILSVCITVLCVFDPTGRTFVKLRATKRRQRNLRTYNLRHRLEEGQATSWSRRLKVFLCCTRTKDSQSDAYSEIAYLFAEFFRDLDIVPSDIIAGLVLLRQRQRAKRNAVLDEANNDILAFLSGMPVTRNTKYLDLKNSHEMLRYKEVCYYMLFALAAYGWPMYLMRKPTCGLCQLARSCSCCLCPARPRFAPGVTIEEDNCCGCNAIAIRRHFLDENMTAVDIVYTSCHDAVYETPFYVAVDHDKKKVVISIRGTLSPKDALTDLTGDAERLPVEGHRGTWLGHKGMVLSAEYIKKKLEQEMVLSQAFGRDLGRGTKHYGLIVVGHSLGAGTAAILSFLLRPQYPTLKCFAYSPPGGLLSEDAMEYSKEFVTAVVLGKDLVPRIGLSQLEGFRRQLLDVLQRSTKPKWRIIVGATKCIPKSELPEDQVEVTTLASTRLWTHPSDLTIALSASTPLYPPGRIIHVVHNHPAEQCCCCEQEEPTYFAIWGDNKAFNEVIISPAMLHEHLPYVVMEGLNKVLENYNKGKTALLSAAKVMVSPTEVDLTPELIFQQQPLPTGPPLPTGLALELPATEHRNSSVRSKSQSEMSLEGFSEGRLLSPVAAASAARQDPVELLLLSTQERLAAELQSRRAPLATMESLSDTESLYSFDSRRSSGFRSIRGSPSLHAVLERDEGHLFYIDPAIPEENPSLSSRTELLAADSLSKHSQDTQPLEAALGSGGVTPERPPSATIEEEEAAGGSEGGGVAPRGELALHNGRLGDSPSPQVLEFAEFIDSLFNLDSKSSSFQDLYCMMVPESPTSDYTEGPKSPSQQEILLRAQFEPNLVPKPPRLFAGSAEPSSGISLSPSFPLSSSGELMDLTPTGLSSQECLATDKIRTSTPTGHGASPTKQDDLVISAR
# Text: To test its activity on endogenously expressed DAGL-α in mouse membrane proteome, an ABPP assay with MB064, a specific β-lactone-containing probe, which was tailor-made for the detection of DAGL-α activity, was used. An alkyne group was introduced in the prototypical DAGL-inhibitor tetrahydrolipstatin (THL) and conjugated this covalent, irreversible inhibitor via copper-catalyzed click chemistry to a BODIPY-acid as a fluorencent reporter group to yield tailor-made probe MB064.
# [2] = test system: CA1 pyramidal neurons; experiment: Depolarization-induced suppression of inhibition (DSI) in hippocampal slices, whole-cell voltage clamp; format: cell-based; details: 10 µM bath application, pre-incubated at least 30 min; mouse hippocampal slices
# Text: Experimental evidence, which supports a role of DAGL-α in short-term synaptic plasticity, has been obtained through the use of genetically engineered mice that constitutively lack DAGL-α. DSI was absent in these DAGL-α knock-out mice, but not in their DAGL-β knock-out counter parts.
# Horizontal slices (300 µm) of the hippocampus were obtained from male C57BL/6 mice (Harlan, the Netherlands) aged 14-19 days postnatal. Experiments were approved by the animal welfare committee of the University of Amsterdam. […] Inhibitory postsynaptic currents (IPSCs) were evoked with a glass stimulus electrode (filled with ACSF) positioned in the stratum radiatum, close to the recorded neuron. […]
# Stock solutions (10 mM) of LEI105 were made in dimethylsulfoxide (DMSO), which was diluted to the final concentration (10 µM) in ACSF. […] Control experiments were performed on neurons recorded in slices pre-incubated with and in the continuous presence of 0.1 % DMSO.
# For each CA1 neuron IPSCs were evoked with 5 sec intervals during a 2-min baseline period, prior to the stimulus evoking depolarization-induced suppression of inhibition (DSI). The maximum amplitude of each IPSC was determined and the mean value of the IPCS amplitudes over this period was calculated and used to normalize the evoked synaptic response. […]
compound,measurement,setting,value
"Cc1ccc(-c2cnc3nc(C(=O)CCCCCc4ccccc4)oc3c2)cc1 [Compound 25, 1-(6-(p-Tolyl)oxazolo[4,5-b]pyridin-2-yl)-6-phenylhexan-1-one]",IC50,[1],31.6 nM
same,DSI,[2],clear suppression of DSI; also recorded: DSI is reduced
